Test results reported in ChEMBL document CHEMBL4507281, “Data for DCP probe BI-4394” (2021).

Assays:
[1] = target: Tyrosine-protein kinase ABL1 (Homo sapiens) (UniProt P00519); conditions: Compound concentration 100.0 nM
[2] = target: Protein-tyrosine kinase 6 (Homo sapiens) (UniProt Q13882); conditions: Compound concentration 100.0 nM
[3] = target: Mitotic checkpoint serine/threonine-protein kinase BUB1 (Homo sapiens) (UniProt O43683); conditions: Compound concentration 100.0 nM
[4] = target: Cyclin-dependent kinase 5 (Homo sapiens) (UniProt Q00535); conditions: Compound concentration 100.0 nM
[5] = target: Cyclin-dependent kinase-like 5 (Homo sapiens) (UniProt O76039); conditions: Compound concentration 100.0 nM
[6] = target: Macrophage colony-stimulating factor 1 receptor (Homo sapiens) (UniProt P07333); conditions: Compound concentration 100.0 nM
[7] = target: Death-associated protein kinase 1 (Homo sapiens) (UniProt P53355); conditions: Compound concentration 100.0 nM
[8] = target: Discoidin domain-containing receptor 2 (Homo sapiens) (UniProt Q16832); conditions: Compound concentration 100.0 nM
[9] = target: Serine/threonine-protein kinase MRCK gamma (Homo sapiens) (UniProt Q6DT37); conditions: Compound concentration 100.0 nM
[10] = test system: Epidermal growth factor receptor (Homo sapiens), P00533 [UNDEFINED MUTATION]; conditions: Compound concentration 100.0 nM
[11] = target: Ephrin type-A receptor 1 (Homo sapiens) (UniProt P21709); conditions: Compound concentration 100.0 nM
Ephrin type-A receptor 1 (Homo sapiens), sequence (P21709 whole entry): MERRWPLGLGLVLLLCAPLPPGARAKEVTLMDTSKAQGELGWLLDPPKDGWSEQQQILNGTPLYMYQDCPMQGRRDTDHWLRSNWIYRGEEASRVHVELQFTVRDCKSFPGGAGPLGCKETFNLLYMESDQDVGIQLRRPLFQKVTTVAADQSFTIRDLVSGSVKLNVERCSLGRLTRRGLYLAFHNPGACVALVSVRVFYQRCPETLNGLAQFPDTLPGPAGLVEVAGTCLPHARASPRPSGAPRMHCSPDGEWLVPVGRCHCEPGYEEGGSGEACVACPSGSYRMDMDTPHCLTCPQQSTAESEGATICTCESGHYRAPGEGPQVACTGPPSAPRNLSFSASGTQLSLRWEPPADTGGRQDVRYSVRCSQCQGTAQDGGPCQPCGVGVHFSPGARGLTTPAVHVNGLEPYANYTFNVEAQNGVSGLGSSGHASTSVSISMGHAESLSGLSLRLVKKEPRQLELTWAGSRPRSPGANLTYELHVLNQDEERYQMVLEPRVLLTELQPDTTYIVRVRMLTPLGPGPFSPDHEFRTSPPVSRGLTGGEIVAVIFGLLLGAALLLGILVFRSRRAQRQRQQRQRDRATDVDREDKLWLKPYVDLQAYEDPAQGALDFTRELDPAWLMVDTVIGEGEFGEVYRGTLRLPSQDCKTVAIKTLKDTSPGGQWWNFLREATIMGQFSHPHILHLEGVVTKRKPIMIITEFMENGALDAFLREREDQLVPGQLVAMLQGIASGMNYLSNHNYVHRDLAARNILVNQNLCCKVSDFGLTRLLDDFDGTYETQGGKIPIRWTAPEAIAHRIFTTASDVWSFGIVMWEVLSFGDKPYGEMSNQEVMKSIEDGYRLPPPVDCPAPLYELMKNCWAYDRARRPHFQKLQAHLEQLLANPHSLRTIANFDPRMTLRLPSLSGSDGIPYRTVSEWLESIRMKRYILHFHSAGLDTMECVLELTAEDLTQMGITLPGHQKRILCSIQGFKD

[12] = target: Tyrosine-protein kinase Fer (Homo sapiens) (UniProt P16591); conditions: Compound concentration 100.0 nM
[13] = target: Inhibitor of nuclear factor kappa-B kinase subunit alpha (Homo sapiens) (UniProt O15111); conditions: Compound concentration 100.0 nM
[14] = target: Interleukin-1 receptor-associated kinase 1 (Homo sapiens) (UniProt P51617); conditions: Compound concentration 100.0 nM
[15] = target: Tyrosine-protein kinase JAK1 (Homo sapiens) (UniProt P23458); conditions: Compound concentration 100.0 nM
[16] = target: LIM domain kinase 1 (Homo sapiens) (UniProt P53667); conditions: Compound concentration 100.0 nM
[17] = target: Mitogen-activated protein kinase kinase kinase 15 (Homo sapiens) (UniProt Q6ZN16); conditions: Compound concentration 100.0 nM
[18] = target: MAP/microtubule affinity-regulating kinase 4 (Homo sapiens) (UniProt Q96L34); conditions: Compound concentration 100.0 nM
[19] = test system: Hepatocyte growth factor receptor (Homo sapiens), P08581 [Y1235D]; conditions: Compound concentration 100.0 nM
[20] = target: Misshapen-like kinase 1 (Homo sapiens) (UniProt Q8N4C8); conditions: Compound concentration 100.0 nM
Misshapen-like kinase 1 (Homo sapiens), sequence (Q8N4C8 whole entry, looked up): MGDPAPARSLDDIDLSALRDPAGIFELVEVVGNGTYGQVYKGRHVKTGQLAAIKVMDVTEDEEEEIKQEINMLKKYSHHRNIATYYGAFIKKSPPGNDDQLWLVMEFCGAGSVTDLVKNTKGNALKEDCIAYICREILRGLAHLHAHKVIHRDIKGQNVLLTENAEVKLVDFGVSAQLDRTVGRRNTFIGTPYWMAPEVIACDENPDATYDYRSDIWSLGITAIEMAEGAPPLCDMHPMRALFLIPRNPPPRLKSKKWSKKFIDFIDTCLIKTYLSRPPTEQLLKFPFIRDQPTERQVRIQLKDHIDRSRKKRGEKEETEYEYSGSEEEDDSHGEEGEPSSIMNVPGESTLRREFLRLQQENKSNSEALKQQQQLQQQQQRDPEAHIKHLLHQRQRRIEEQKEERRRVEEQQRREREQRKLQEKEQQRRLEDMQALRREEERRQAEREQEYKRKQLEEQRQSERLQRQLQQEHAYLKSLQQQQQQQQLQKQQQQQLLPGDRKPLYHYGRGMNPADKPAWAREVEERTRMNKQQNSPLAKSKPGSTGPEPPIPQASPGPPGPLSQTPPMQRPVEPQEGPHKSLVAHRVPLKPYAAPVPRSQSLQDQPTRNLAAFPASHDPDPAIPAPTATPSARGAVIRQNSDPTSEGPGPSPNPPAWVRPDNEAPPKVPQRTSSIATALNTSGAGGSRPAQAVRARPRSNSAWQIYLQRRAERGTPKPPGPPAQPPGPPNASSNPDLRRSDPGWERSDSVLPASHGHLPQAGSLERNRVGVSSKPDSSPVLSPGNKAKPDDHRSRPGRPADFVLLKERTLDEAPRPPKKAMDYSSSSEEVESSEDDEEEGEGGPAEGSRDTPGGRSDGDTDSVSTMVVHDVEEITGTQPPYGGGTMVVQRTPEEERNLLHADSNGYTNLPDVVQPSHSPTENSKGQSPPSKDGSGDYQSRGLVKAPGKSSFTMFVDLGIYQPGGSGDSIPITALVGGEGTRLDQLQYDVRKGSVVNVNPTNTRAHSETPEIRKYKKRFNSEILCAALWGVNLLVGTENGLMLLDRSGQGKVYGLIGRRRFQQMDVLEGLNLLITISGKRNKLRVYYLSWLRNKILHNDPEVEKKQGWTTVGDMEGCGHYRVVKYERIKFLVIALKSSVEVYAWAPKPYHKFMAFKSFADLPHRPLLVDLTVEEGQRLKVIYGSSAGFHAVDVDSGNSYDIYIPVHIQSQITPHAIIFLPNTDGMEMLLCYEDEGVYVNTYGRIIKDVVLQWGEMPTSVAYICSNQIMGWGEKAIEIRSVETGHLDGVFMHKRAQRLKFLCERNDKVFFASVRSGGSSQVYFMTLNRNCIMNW

[21] = target: Serine/threonine-protein kinase Nek9 (Homo sapiens) (UniProt Q8TD19); conditions: Compound concentration 100.0 nM
[22] = target: Mitogen-activated protein kinase kinase kinase 14 (Homo sapiens) (UniProt Q99558); conditions: Compound concentration 100.0 nM
[23] = target: 1-phosphatidylinositol 3-phosphate 5-kinase (Homo sapiens) (UniProt Q9Y2I7); conditions: Compound concentration 100.0 nM
1-phosphatidylinositol 3-phosphate 5-kinase (Homo sapiens), sequence (Q9Y2I7 whole entry): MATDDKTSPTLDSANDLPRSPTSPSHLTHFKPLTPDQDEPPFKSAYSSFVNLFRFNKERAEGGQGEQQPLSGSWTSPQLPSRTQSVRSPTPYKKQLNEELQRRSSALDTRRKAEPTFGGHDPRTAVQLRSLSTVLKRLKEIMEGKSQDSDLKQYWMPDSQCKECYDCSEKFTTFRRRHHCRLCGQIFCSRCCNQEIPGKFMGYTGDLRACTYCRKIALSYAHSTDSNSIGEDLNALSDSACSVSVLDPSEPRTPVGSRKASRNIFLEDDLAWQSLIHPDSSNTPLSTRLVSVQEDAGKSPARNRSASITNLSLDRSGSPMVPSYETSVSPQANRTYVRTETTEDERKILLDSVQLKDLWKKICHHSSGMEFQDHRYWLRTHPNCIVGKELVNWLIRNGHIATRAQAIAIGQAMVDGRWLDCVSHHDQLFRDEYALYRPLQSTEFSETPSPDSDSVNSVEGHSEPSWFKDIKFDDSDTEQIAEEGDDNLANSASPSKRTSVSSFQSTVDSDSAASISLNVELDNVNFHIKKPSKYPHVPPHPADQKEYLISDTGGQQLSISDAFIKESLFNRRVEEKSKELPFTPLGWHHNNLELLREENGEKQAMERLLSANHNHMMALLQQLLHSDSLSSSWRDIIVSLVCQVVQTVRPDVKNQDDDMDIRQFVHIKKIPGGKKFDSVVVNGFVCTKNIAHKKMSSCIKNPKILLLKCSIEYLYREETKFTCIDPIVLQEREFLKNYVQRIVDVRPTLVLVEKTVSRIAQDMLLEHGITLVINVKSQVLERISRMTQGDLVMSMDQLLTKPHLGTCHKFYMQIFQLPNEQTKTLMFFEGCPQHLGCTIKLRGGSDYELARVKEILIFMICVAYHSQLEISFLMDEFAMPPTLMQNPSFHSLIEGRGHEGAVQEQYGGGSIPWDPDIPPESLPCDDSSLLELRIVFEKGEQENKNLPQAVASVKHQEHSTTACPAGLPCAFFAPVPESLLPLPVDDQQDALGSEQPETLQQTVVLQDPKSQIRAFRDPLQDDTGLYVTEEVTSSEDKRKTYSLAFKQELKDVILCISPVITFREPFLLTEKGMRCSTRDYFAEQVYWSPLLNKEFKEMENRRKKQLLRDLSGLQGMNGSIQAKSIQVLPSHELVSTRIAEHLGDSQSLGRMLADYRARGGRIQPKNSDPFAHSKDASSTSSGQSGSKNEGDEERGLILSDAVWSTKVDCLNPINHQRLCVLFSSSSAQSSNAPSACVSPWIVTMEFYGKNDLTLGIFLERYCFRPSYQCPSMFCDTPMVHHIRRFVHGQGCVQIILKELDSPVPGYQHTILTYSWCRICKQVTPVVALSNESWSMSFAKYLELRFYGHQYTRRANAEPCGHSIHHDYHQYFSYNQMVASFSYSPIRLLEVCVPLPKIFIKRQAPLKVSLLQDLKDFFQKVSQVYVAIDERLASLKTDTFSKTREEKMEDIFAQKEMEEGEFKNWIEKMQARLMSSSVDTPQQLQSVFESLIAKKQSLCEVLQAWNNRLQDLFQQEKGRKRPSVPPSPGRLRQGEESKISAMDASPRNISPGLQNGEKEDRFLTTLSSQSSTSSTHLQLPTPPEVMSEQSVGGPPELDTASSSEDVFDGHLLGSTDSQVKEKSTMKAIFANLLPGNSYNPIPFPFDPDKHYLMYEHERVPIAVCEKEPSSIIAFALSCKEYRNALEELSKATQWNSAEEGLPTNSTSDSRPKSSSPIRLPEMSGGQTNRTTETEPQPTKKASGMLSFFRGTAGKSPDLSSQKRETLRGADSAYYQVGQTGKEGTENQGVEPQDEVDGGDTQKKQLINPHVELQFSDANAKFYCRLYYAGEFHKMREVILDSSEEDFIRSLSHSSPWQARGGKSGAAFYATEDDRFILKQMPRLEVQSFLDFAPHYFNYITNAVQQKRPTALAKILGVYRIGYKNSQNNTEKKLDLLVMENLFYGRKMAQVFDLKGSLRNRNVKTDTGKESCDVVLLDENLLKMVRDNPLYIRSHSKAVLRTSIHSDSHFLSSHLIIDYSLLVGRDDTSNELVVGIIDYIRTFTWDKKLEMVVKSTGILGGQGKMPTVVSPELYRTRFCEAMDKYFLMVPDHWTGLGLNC

[24] = target: cAMP-dependent protein kinase catalytic subunit alpha (Homo sapiens) (UniProt P17612); conditions: Compound concentration 100.0 nM
[25] = target: Serine/threonine-protein kinase PLK3 (Homo sapiens) (UniProt Q9H4B4); conditions: Compound concentration 100.0 nM
[26] = target: Protein kinase C delta type (Homo sapiens) (UniProt Q05655); conditions: Compound concentration 100.0 nM
[27] = target: Serine/threonine-protein kinase D2 (Homo sapiens) (UniProt Q9BZL6); conditions: Compound concentration 100.0 nM
[28] = target: cAMP-dependent protein kinase catalytic subunit PRKX (Homo sapiens) (UniProt P51817); conditions: Compound concentration 100.0 nM
[29] = target: Serine/threonine-protein kinase SIK3 (Homo sapiens) (UniProt Q9Y2K2); conditions: Compound concentration 100.0 nM
[30] = test system: Proto-oncogene tyrosine-protein kinase receptor Ret (Homo sapiens), P07949 [V804M]; conditions: Compound concentration 100.0 nM
[31] = target: Ribosomal protein S6 kinase beta-1 (Homo sapiens) (UniProt P23443); conditions: Compound concentration 100.0 nM
[32] = target: Tyrosine-protein kinase Srms (Homo sapiens) (UniProt Q9H3Y6); conditions: Compound concentration 100.0 nM
[33] = target: Serine/threonine-protein kinase 16 (Homo sapiens) (UniProt O75716); conditions: Compound concentration 100.0 nM
[34] = target: Serine/threonine-protein kinase 35 (Homo sapiens) (UniProt Q8TDR2); conditions: Compound concentration 100.0 nM
[35] = target: Serine/threonine-protein kinase TAO3 (Homo sapiens) (UniProt Q9H2K8); conditions: Compound concentration 100.0 nM
[36] = target: TRAF2 and NCK-interacting protein kinase (Homo sapiens) (UniProt Q9UKE5); conditions: Compound concentration 100.0 nM
[37] = target: Non-receptor tyrosine-protein kinase TYK2 (Homo sapiens) (UniProt P29597); conditions: Compound concentration 100.0 nM
[38] = target: Tyrosine-protein kinase Yes (Homo sapiens) (UniProt P07947); conditions: Compound concentration 100.0 nM
[39] = target: 5-hydroxytryptamine receptor 2B (Homo sapiens) (UniProt P41595); conditions: Compound concentration 10.0 uM
[40] = target: 5-hydroxytryptamine receptor 5A (Homo sapiens) (UniProt P47898); conditions: Compound concentration 10.0 uM
[41] = target: Kappa-type opioid receptor (Homo sapiens) (UniProt P41145); conditions: Compound concentration 10.0 uM
[42] = target: Histamine H1 receptor (Homo sapiens) (UniProt P35367); conditions: Compound concentration 10.0 uM
[43] = target: Muscarinic acetylcholine receptor M4 (Homo sapiens) (UniProt P08173); conditions: Compound concentration 10.0 uM
Muscarinic acetylcholine receptor M4 (Homo sapiens), sequence (P08173 whole entry): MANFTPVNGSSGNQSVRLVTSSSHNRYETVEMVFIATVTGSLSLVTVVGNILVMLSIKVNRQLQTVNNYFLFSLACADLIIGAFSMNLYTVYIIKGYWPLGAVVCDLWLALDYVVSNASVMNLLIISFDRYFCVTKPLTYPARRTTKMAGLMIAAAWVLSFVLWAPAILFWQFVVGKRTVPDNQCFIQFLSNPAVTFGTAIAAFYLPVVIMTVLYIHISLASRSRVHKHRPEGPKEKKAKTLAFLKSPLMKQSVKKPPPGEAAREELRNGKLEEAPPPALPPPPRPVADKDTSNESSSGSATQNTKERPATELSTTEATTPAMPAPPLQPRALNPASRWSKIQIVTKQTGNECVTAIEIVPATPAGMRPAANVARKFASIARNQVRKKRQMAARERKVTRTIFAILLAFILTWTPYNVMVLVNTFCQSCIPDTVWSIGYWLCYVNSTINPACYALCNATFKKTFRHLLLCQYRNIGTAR

[44] = target: Muscarinic acetylcholine receptor M5 (Homo sapiens) (UniProt P08912); conditions: Compound concentration 10.0 uM
[45] = target: Sigma non-opioid intracellular receptor 1 (Homo sapiens) (UniProt Q99720); conditions: Compound concentration 10.0 uM
Sigma non-opioid intracellular receptor 1 (Homo sapiens), sequence (Q99720 whole entry): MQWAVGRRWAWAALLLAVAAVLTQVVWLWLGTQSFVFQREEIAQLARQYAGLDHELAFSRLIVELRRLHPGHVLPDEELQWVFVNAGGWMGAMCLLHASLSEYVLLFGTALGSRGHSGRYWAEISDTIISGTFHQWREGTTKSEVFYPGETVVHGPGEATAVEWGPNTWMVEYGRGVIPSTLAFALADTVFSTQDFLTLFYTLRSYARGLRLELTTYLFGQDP

CCOC(=O)c1cc2cc(-c3cc(C(=O)NCc4ccc(C(=O)O)cc4)nn3C)ccc2[nH]1 [BI 4394]
inactive: residual activity [1] 81% | residual activity [2] 98% | residual activity [3] 100% | residual activity [4] 94% | residual activity [5] 87% | residual activity [6] 94% | residual activity [7] 84% | residual activity [8] 76% | residual activity [9] 93% | residual activity [10] 100% | residual activity [11] 100% | residual activity [12] 100% | residual activity [13] 100% | residual activity [14] 85% | residual activity [15] 94% | residual activity [16] 100% | residual activity [17] 100% | residual activity [18] 79% | residual activity [19] 86% | residual activity [20] 94% | residual activity [21] 98% | residual activity [22] 58% | residual activity [23] 100% | residual activity [24] 85% | residual activity [25] 70% | residual activity [26] 90% | residual activity [27] 100% | residual activity [28] 100% | residual activity [29] 100% | residual activity [30] 76% | residual activity [31] 88% | residual activity [32] 90% | residual activity [33] 78% | residual activity [34] 94% | residual activity [35] 85% | residual activity [36] 100% | residual activity [37] 91% | residual activity [38] 100% | inhibition [39] 8.13% | inhibition [40] 14.8% | inhibition [41] 27.2% | inhibition [42] 9.64% | inhibition [43] -6.49% | inhibition [44] 7.64% | inhibition [45] 14.6%

Cn1nc(C(=O)NCc2ccc(C(=O)O)cc2)cc1-c1ccc2[nH]ccc2c1 [BI 4395]
inactive: residual activity [1] 65% | residual activity [2] 89% | residual activity [3] 83% | residual activity [4] 90% | residual activity [5] 85% | residual activity [6] 98% | residual activity [7] 97% | residual activity [8] 75% | residual activity [9] 100% | residual activity [10] 74% | residual activity [11] 95% | residual activity [12] 93% | residual activity [13] 90% | residual activity [14] 93% | residual activity [15] 84% | residual activity [16] 100% | residual activity [17] 91% | residual activity [18] 100% | residual activity [19] 100% | residual activity [20] 95% | residual activity [21] 99% | residual activity [22] 85% | residual activity [23] 100% | residual activity [24] 100% | residual activity [25] 94% | residual activity [26] 89% | residual activity [27] 100% | residual activity [28] 71% | residual activity [29] 94% | residual activity [30] 91% | residual activity [31] 91% | residual activity [32] 81% | residual activity [33] 86% | residual activity [34] 94% | residual activity [35] 83% | residual activity [36] 97% | residual activity [37] 94% | residual activity [38] 84% | inhibition [39] -2.75% | inhibition [40] 0.78% | inhibition [41] 16.8% | inhibition [42] 8.74% | inhibition [43] 0.05% | inhibition [44] -7.43% | inhibition [45] 1.99%
